# Results taken from US8673591B2, “Genetic incorporation of 3-aminotyrosine into reductases” (The Scripps Research Institute, priority 2007, dated 2014).
# Read-outs that look alike come from different tables or passages of the source.
# Assays:
# [1] = tested on: DH10B E. coli cells; test: Toxicity of NH2Y: growth of E. coli in GMML medium and on agar plates; format: cell-based
# From the text: (§1) Toxicity and uptake of NH2Y. Evolution of an NH2Y-specific aminoacyl-tRNA synthetase (RS) requires that NH2Y is taken up by E. coli, that it is not toxic, and that it is not incorporated into proteins by any endogenous RSs. All three requirements were met by NH2Y. […] The presence of DTT however, caused cells to grow at a rate 25-35% more slowly than those in the presence of only NH2Y or absence of NH2Y/DTT.
# [2] = molecular target: T1, E. coli ribonucleotide reductase (RNR) (Escherichia coli, UniProt P00452); details: inactivation of wt α2β2 by N3ADP/dGTP; 20 s time scale; cited from earlier work
# T1 construct: made in house; host or cells: E. coli DH10B (NH2Y-α2s)
# [3] = tested on: DH10B E. coli cells; test: Qualitative assay for cellular uptake of NH2Y by LC-MS; format: cell-based; details: 1 mM NH2Y with or without 0.1 mM DTT
# Description: Qualitative assay for cellular uptake of NH2Y by LC-MS. The uptake assay was performed as previously described with minor modifications.^48 DH10B E. coli cells were grown to saturation at 37° C. in GMML in the presence of 1 mM NH2Y and 0.1 mM DTT and subsequently harvested and lysed as outlined previously. Chromatography of the crude extract was performed on a Zorbax SB-C18 (5 μm, 4.6×150 mm) column with a linear gradient from 5% to 25% MeCN in 0.1% TFA solution over 8 min at 0.5 mL/min. Under these conditions, NH2Y elutes at ˜13% MeCN. For HPLC-ESI-MS analysis, NH2Y standard solutions were prepared in water.
# as §1
# [4] = cited from earlier work
compound,measurement,setting,value
"O[C@H](CS)[C@H](O)CS (racemic) [DTT, DL-dithiothreitol]",slower growth rate,"[1]; Escherichia coli, 0.1 mM",25-35%
"[N-]=[N+]=N[C@@H]1[C@H](O)[C@@H](COP(=O)(O)OP(=O)(O)O)O[C@H]1n1cnc2c(N)ncnc21 [N3ADP, 2′-Azido-2′-deoxyadenosine-5′-diphosphate]",initial Y122• lost (equivalent amount of N• formed),[2],50-60%
"Nc1cc(C[C@H](N)C(=O)O)ccc1O [NH2Y, 3-aminotyrosine]",cellular uptake (HPLC and ESI-MS of cell extracts),[3],observed in all cell extracts
same,growth rates in the presence of substance,"[1]; NH2Y 1 mM, GMML medium",not significantly affected
same,reduction potential,[4]; pH 7.0,0.64 V
same,reduction potential lower than that of Y,[4]; pH 7.0,0.19 V
same,reduction potential lower than that of Y,[4]; pH 7,190 mV
